Here are results for five compounds from ChEMBL document CHEMBL1681656, “Design and synthesis of AApeptides: a new class of peptide mimics” (Bioorg Med Chem Lett, 2011).

Series [1] in a line: Inhibition of GST-MDM2/His6-p53 interaction expressed in Escherichia coli after 1 hr by ELISA. (In an ELISA, binding on a coated surface is turned into a signal by an enzyme label.)
The nature of series [2]: Chemical stability of the compound assessed as enzymatic hydrolysis in ammonium bicarbonate buffer at pH 7.8 after 24 hrs in presence of chymotrypsin. To be noted: isolated protein, pH 7.8, 24 h. Type of series: physicochemical.
Series [3] can be described thus: Chemical stability of the compound assessed as enzymatic hydrolysis in ammonium bicarbonate buffer at pH 7.8 after 24 hrs in presence of pronase. Format: physicochemical. The note with it: pH 7.8, 24 h.
The nature of series [4]: Chemical stability of the compound assessed as enzymatic hydrolysis in ammonium bicarbonate buffer at pH 7.8 after 24 hrs in presence of trypsin. Format: physicochemical. The note with it: isolated protein, pH 7.8, 24 h.

The compound `CCC(=O)N(CCNC(=O)[C@H](Cc1c[nH]c2ccccc12)N(CCNC(=O)[C@H](Cc1ccccc1)N(CCNC(=O)[C@H](C)N(CCN)C(=O)CC(C)C)C(=O)CC)C(=O)CCO)[C@H](C(N)=O)C(C)C` returned an IC50 in series [1] of more than 1000 µM.

Take `CCC(=O)N(CCNC(=O)[C@H](CC(C)C)N(CCNC(=O)[C@H](Cc1c[nH]c2ccccc12)N(CCNC(=O)[C@H](Cc1ccccc1)N(CCN)C(=O)CC)C(=O)CCO)C(=O)CC)[C@@H](C)C(N)=O`: in series [1], half-maximal inhibition (IC50) required 120 µM.

Consider `CCC(=O)N(CCNC(=O)[C@H](CC(C)C)N(CCNC(=O)[C@H](Cc1c[nH]c2ccccc12)N(CCNC(=O)[C@H](Cc1ccccc1)N(CCNC(=O)[C@H](C)N(CCN)C(=O)CC)C(=O)CC)C(=O)CCO)C(=O)CCc1ccccc1)[C@@H](C)C(N)=O`, for which the Stability result in series [2], in series [3] and in series [4] was “Stable” in each case. In series [1], this compound had an IC50 of 120 µM.

In series [1], `CC(=O)N[C@@H](CCC(N)=O)C(=O)N[C@@H](CCC(=O)O)C(=O)N[C@H](C(=O)N[C@@H](Cc1ccccc1)C(=O)N[C@@H](CO)C(=O)N[C@@H](CC(=O)O)C(=O)N[C@@H](CC(C)C)C(=O)N[C@@H](Cc1c[nH]c2ccccc12)C(=O)N[C@@H](CCCCN)C(=O)N[C@@H](CC(C)C)C(=O)N[C@@H](CC(C)C)C(=O)N1CCC[C@H]1C(=O)O)[C@@H](C)O` returned an IC50 of 8.7 µM.

In the case of `CCC(=O)N(CCNC(=O)[C@H](CC(C)C)N(CCNC(=O)[C@H](Cc1c[nH]c2ccccc12)N(CCNC(=O)[C@H](Cc1ccccc1)N(CCNC(=O)[C@H](C)N(CCN)C(=O)CC)C(=O)CC)C(=O)CCO)C(=O)CC)[C@@H](C)C(N)=O`, in series [1], the IC50 came out at 38 µM.

As usually defined, the IC50 is the point on the concentration scale where inhibition reaches its midpoint. A lower IC50 goes with higher potency.
